Measured values reported in article PMC6540907, “The nuclear export inhibitor aminoratjadone is a potent effector in extracellular-targeted drug conjugates” (Chemical Science, 2019).
Read-outs that look alike come from different tables or passages of the source. No end group written: not given here.

How the values were obtained:
[1] = parameters: method as in ref 86 = [86]; Hartmann D. A. Curr. Protoc. Pharmacol. 2002 19 7.6.1 7.6.8; settings: cited from earlier work
[2] = Plasma stability assay (HPLC-MS/MS); type: in vitro ADME; settings: 37 °C, pH 7.4, two hours, 250 µM
Method: We exposed three selected conjugates, FA-7-Val-Cit-PABA-16R-aminoratjadone, FA-SS-16R-aminoratjadone and FA-3b-16R-aminoratjadone, to human plasma and quantified their relative amount at different time points by HPLC-MS/MS analysis (Fig. 9).
FA-7-Val-Cit-pABA-16R-Aminoratjadone (PK008a), FA-SS-16R-Aminoratjadone (PK026a) and FA-3b-L-Aminoratjadone (PK058a) were dissolved in DMSO were added to human plasma (pH 7.4, 37°C) to yield a final concentration of 10 µg/ml. In addition, procaine, propoxycaine and procainamide (dissolved in DMSO) were added to human plasma (pH 7.4, 37°C) to yield a final concentration of 250 µM. Procaine and propoxycaine served as positive controls as they are known to be unstable in mouse plasma. Procainamide served as negative control as it is known to be stable in mouse plasma. The samples were incubated for 0 min, 30 min, 60 min, 90 min and 120 min at 37°C. At each time point 10 µl of the respective sample was extracted with 50 µl acetonitrile containing an internal standard for 15 min on ice. […] All samples were analyzed via HPLC-MS using an Agilent 1290 Inifinity II HPLC system coupled to an AB Sciex QTrap 6500plus mass spectrometer. […]
MRM. All compo unds were detected in positive scan mode. Peak areas of each compound and of the internal standard were analyzed using MultiQuant 3.0 software (AB Sciex). Peaks were quantified using […]

K-562 = system: K-562; parameters: method as in Köster et al.10; settings: K-562 human chronic myelogenous leukemia; ref Köster et al.10; read-out: Antiproliferative activity IC50; cited from earlier work
L-929 [3] = system: L-929; parameters: method as in Köster et al.10; settings: L-929 murine fibroblast; ref Köster et al.10; read-out: Antiproliferative activity IC50; cited from earlier work
PC-3 = system: PC-3; parameters: method as in Köster et al.10; settings: PC-3 human prostate carcinoma; ref Köster et al.10; read-out: Antiproliferative activity IC50; cited from earlier work
KB-V1 = system: KB-V1; parameters: method as in Köster et al.10; settings: KB-V1 multi-drug-resistant human cervix carcinoma; ref Köster et al.10; read-out: Antiproliferative activity IC50; cited from earlier work
KB-3.1 [4] = system: KB-3.1; parameters: method as in Köster et al.10; settings: KB-3.1 human cervix carcinoma; ref Köster et al.10; read-out: Antiproliferative activity IC50; cited from earlier work
[5] = system: panel of cancer cell lines; assay: Antiproliferative activity of drug-free LHRH carriers in a panel of cancer cell lines; type: cell-based, human; settings: KB-3.1, A-549, SK-OV-3, MCF-7
Text: Luteinizing hormone releasing hormone (LHRH)-based carriers were selected for this purpose, because it has been shown that several cancer cell types overexpress receptors for LHRH, a peptide-hormone involved in regulation of the sex glands of males and females.[25],[26],[29],[82]–[84] We synthesized three novel derivatives of LHRH that bear azido-ornithine as […] amino acid of the decapeptide core structure instead of the glycine residue found in the natural peptide (Fig. 8). As the importance of the newly introduced stereocenter was unclear, both diastereoisomers L-Orn-N3-LHRH and D-Orn-N3-LHRH were prepared. An additional analog, D-Orn-N3-Gose, was based on the synthetic LHRH analogue goserelin, that was reported to have higher affinity for the LHRH-receptor[85] due to a hydrazine carboxamide in the C-terminal position. […] Next, their antiproliferative activities were evaluated in a panel of cancer cell lines, in order to assess a contribution of the drug-free targeting moiety to bioactivity. […] The conjugates were evaluated for their antiproliferative activity against the LHRH-receptor-positive lung cancer cell line A-549 (Table 3). […]
serial dilutions of the test compound were given to 120 µL of suspended cells (50.000/mL) in wells of 96-well plates. After 5 days of incubation growth inhibition (IC50) was determined using an MTT assay.9 […]

L-929 [6] = assay: Cell proliferation assay (MTT, 5 days); type: cell-based, murine; settings: Mus musculus, L929, L-929 murine fibroblast; read-out: Antiproliferative activity IC50
Method: (§1) Biological evaluation of the compounds […]
(§2) serial dilutions of the test compound were given to 120 µL of suspended cells (50.000/mL) in wells of 96-well plates. After 5 days of incubation growth inhibition (IC50) was determined using an MTT assay.9
(§3) Table S1:Medium conditions for different cell types.
(§4) Cell type Medium Additives
(§5) L-929 (DSMZ ACC 2) DME medium (high glucose) (Gibco) 10% fetal calf serum (Gibco) SKOV-3 DSMZ ATCC HTB Mc Coys-Medium (Gibco) 10% fetal calf serum (Gibco) […]
A549 (DSMZ ACC 107) DME medium (high glucose) (Gibco) 10% fetal calf serum (Gibco) KB 3.1 (DSMZ ACC 158) DME medium (high glucose) (Gibco) 10% fetal calf serum (Gibco) Ratjadone Compound Antiproliferative activity IC50 [nM]
KB-3.1: human cervix carcinoma, KB-V1: multi-drug-resistant human cervix carcinoma, K-562: human chronic myelogenous leukemia cell, PC-3: human prostate carcinoma, L-929: murine fibroblast
Figure S8: Structures of Ratjadone A-D and their antiproliferative activity (IC50 values in nM). Data published by Köster et al.10

CRM1 = CRM1 (Homo sapiens, UniProt O14980); assay: Nuclear export inhibition, fluorescent translocation biosensor in recombinant HeLa cells; type: cell-based; parameters: This cellular assay uses HeLa cells that express a recombinant fusion protein; endogenous in cells; host or cells: HeLa cells stably expressing the NLS-GST-GFP-RevNES translocation biosensor (HeLaRevBio); settings: HeLa cells expressing translocation biosensor, 1 h incubation; read-out: nuclear export inhibition IC50
KB-3.1 [7] = assay: cells; type: cell-based, human; settings: KB 3-1; KB-3.1 human cervix carcinoma; read-out: Antiproliferative activity IC50
Method: as §1, §2, §3, §4, §5
(§6) A549 (DSMZ ACC 107) DME medium (high glucose) (Gibco) 10% fetal calf serum (Gibco)

MCF-7 = assay: cells; type: cell-based, human; settings: Homo sapiens, MCF7, MCF-7 human breast carcinoma; read-out: Antiproliferative activity IC50
Method: as §1, §2, §3, §4, §5, §6

SK-OV-3 = assay: cells; type: cell-based, human; settings: Homo sapiens, SK-OV-3, SK-OV-3 human ovarian carcinoma; read-out: Antiproliferative activity IC50
Method: as §1, §2, §3, §4, §5, §6

A-549 = assay: cells; type: cell-based, human; settings: Homo sapiens, A549, A-549 human lung carcinoma; read-out: Antiproliferative activity IC50
Method: as §1, §2, §3, §4, §5, §6

Chain of CRM1 (O14980 whole entry, the tested form may be a part): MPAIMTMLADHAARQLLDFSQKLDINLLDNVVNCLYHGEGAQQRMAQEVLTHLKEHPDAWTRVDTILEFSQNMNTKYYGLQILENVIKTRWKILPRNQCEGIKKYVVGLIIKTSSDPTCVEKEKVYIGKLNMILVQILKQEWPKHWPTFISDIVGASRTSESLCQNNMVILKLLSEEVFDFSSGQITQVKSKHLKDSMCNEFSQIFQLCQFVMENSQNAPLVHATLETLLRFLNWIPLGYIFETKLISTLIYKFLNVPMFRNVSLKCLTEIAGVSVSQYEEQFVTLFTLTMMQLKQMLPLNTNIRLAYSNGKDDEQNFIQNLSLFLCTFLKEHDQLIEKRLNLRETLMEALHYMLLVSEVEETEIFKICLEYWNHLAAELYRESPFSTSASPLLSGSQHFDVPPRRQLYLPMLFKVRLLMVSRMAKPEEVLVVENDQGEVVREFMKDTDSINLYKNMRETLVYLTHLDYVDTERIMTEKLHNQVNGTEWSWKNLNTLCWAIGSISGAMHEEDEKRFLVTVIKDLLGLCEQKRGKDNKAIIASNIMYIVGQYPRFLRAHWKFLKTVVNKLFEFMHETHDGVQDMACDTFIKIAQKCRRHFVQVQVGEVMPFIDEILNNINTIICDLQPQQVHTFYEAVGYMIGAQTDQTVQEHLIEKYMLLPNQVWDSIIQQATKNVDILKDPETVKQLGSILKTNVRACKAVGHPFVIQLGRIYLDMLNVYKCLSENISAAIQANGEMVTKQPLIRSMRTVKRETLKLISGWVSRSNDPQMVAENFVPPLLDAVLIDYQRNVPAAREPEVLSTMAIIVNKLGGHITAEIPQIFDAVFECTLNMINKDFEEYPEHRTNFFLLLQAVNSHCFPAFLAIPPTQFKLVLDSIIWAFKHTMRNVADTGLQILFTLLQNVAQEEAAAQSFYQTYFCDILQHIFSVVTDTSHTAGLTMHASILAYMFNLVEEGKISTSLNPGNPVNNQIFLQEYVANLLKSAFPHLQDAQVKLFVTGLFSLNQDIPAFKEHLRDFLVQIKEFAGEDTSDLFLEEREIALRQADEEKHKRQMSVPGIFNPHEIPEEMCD

| Molecule | IC50 (K-562) | IC50 (L-929 [3]) | IC50 (PC-3) | IC50 (KB-V1) | IC50 (KB-3.1 [4]) | other results |
| --- | --- | --- | --- | --- | --- | --- |
| CCN(CC)CCOC(=O)c1ccc(N)cc1 [procain] |  |  |  |  |  | stability in plasma (known) [1]: degrade rapidly in plasma; degraded in human plasma [2]: more than 90% |
| C/C=C/[C@@H]1O[C@H]([C@@H](O)/C=C/C=C/C[C@@H](C)/C=C(\C=C\[C@H]2CC=CC(=O)O2)CC)C[C@@H](O)[C@@H]1C [Compound 3, Ratjadone C] | 0.15 nM | 0.2 nM | 0.08 nM | 0.08 nM | 0.35 nM |  |
| CC(C)C[C@H](NC(=O)[C@H](CCCN=[N+]=[N-])NC(=O)[C@H](Cc1ccc(O)cc1)NC(=O)[C@H](CO)NC(=O)[C@H](Cc1c[nH]c2ccccc12)NC(=O)[C@H](Cc1c[nH]cn1)NC(=O)[C@@H]1CCC(=O)N1)C(=O)N[C@@H](CCCNC(=N)N)C(=O)N1CCC[C@H]1C(=O)NCC(N)=O [L-Orn-N3-LHRH] |  |  |  |  |  | antiproliferative activity of the drug-free targeting moiety [5]: no antiproliferative activity |
| C/C=C/[C@@H]1O[C@H](C/C=C/C=C/C[C@@H](C)/C=C(\C=C\[C@H]2CC=CC(=O)O2)CC)C[C@@H](O)[C@@H]1C [Compound 4, Ratjadone D] | 0.5 nM | 1 nM | 0.4 nM | 0.3 nM | 2 nM |  |
| LHRH: luteinizing hormone releasing hormone, peptide hormone (QHWSYGLRPG-NH2; not fully specified (residue 1); ends and bridges not checked; UniProt P01148 24-33, looked up) [reference compound] |  |  |  |  |  | antiproliferative activity of the drug-free targeting moiety [5]: no antiproliferative activity |
| CCCOc1cc(N)ccc1C(=O)OCCN(CC)CC [propoxycain] |  |  |  |  |  | stability in plasma (known) [1]: degrade rapidly in plasma; degraded in human plasma [2]: more than 90% |
| CC=CC1OC(C(O)C=CC=C(C)CC(C)C=C(C)C=CC2CC=CC(=O)O2)CC(O)C1C (single isomer, unassigned; (+)) [Compound 1, (+)-ratjadone A, reference compound] | 0.3 nM | 0.15 nM | 0.08 nM | 0.15 nM | 0.3 nM | IC50 (L-929 [6]): 0.68 nM; IC50 (CRM1): 1.2 nM; IC50 (KB-3.1 [7]): 0.46 nM; IC50 (MCF-7): 0.11 nM; IC50 (SK-OV-3): 0.24 nM; IC50 (A-549): 0.15 nM |
| C/C=C/[C@@H]1O[C@H]([C@@H](O)/C=C/C=C/C[C@@H](C)/C=C(C)\C=C\[C@H]2CC=CC(=O)O2)C[C@@H](O)[C@@H]1C [Compound 2, Ratjadone B] | 0.5 nM | 0.35 nM | 0.15 nM | 0.15 nM | 1 nM |  |
